Experiment [1] concerns EAE in C57BL/6 mice. The experiment is described as follows: Experimental autoimmune encephalomyelitis (EAE) mouse model, clinical EAE score. It is filed as in vivo. Particulars: 30 mg/kg and 100 mg/kg; 14 days. On the procedure:
The experimental animals, female C57BL/6 mice, aged about 8 weeks, were purchased from National Laboratory Animal Center (Tainan). After acclimation and quarantine, the mice were approximately 10-12 weeks of age at the time of performing the EAE experiments. The experimental animals were bred in the environment: 12 hours light and 12 hours dark, room temperature of 23±2° C., and relative humidity of 40-70%. During feeding, animals were free to obtain adequate food and drinking water, but after the onset of EAE, the soaked soft feed and agar gel jelly were especially given in the bottom of the feeding cage, so that the onset animals were easier to feed and drink. In addition, during the quarantine and testing period, the animals were observed and recorded by the veterinarian and the experimental staff of ITRI to ensure health of these experimental animals.
The foregoing C57BL/6 mice were administered subcutaneously with 200 μl emulsion including 200 μg MOG35-55 peptide and 400 μg Mycobacterium tuberculosis H37Ra, followed by intraperitoneal injection of 500 ng pertussis toxin for induction of EAE. From the 7th day after induction, the EAE clinical symptoms were recorded daily according to the recognized Ataxia score (grading of nervous system disorder) and EAE score as the scoring criteria (description of Ataxia score and EAE score are as follows). […]

Experiment [2] deals with IL-17 secretion in EL4 murine lymphoma cells. The experiment is described as follows: Anti-IL-17 secretion in EL4 (murine lymphoma) cells induced with PMA and Ionomycin, ELISA. It is filed as cell-based. Particulars: PMA 10 ng/ml + Ionomycin 5 ng/ml, 18 hours. The protocol:
EL4 cell line is murine lymphoma cell purchased from Bioresource Collection and Research Center (referred to as BCRC) and cultured in RPMI 1640 medium which contains 10% Fetal Bovine Serum (referred to as FBS), 1.5 g Sodium bicarbonate, 1 mM Sodium pyruvate, lx non-essential amino acids (referred to as NEAA), and 0.5 mM 2-Mecaptoethanol (referred to as 2-ME).
EL4 lymphoma cells were seeded into 96-well plate by 1×10^5 cells per well and 10 μl of the extract of A. tsao-ko HE-06 was added to each well and incubated at 37° C. in 5% CO2 cell incubator for 1 hour. Then, Phorbol-12-myristate-13-acetate (referred to as PMA or TPA) and Ionomycin were added to be the stimulants that induce activation of lymphoma cells, in which the final concentration of PMA was 10 ng/ml and the final concentration of Ionomycin was 5 ng/ml, and additional 18 hours incubation was executed. In the above test, the group of adding both PMA (final concentration of 10 ng/ml) and Ionomycin (final concentration of 5 ng/ml) was considered as the control group.
Thereafter, the cell-containing 96-well plate was centrifuged at 1200 rpm for 5 minutes and the supernatant was collected and transferred to the new 96-well plate. […] 150 μl DMSO was then added to dissolve the […] and the absorbance of 570 nm was measured to assess the cell viability. […]
On the technique in general: An ELISA detects its analyte on a solid surface through an enzyme-linked reagent.

The test system of experiment [3] is TNF-α secretion in LPS-induced acute inflammatory mice. In words: TNF-α secretion in LPS-induced acute inflammatory BALB/c mouse model, plasma ELISA. Conditions: FIG. 5B. It is filed as in vivo. The protocol: The 6-8 weeks BALB/c male mice were purchased from BioLASCO Taiwan Co., Ltd. In addition to make the feeding condition meeting with national experimental animal guidelines, the batch of mice were marked, sub-cage and weighing soon after acquisition. Then, these mice were placed to the quarantine room of general area for a week of quarantine work. During the quarantine period, observation of mobility and environmental adaptability was performed, and after assessment to be normal, these mice were transferred into the feeding area for experimental implementation. […]
Then the mice were fasted for 2 to 4 hours but regular drinking water was still supplied. […] After administration, the clinical symptoms of the mice were observed and recorded. […] After administration, the clinical symptoms of the mice were observed and recorded.
After 1.5 hours LPS stimulation, the mice were euthanized by excessive CO2 and the whole blood was collected by cardiac puncture blood sampling. Next, the plasma was collected after centrifugation at 6000 rpm and 4° C. for 10 minutes and then TNF-α secretion were analyzed.
The TNF-α secretion in plasma was analyzed according to the following procedure shown in Duoset® ELISA kit. […] Finally, 50 μl of Stop Solution (1N HCl) was added to each well to stop the color reaction, and the absorbance of OD450 nm was measured.

For experiment [4], the system named is IMQ-induced psoriasis-like dermatitis in BALB/c mice. The experiment is described as follows: Imiquimod (IMQ)-induced psoriasis-like dermatitis mouse model, skin irritation score. It is filed as in vivo. Conditions: 100 mg/kg; 6 days; FIG. 5D. On the procedure:
The 8 weeks BALB/c male mice were purchased from BioLASCO Taiwan Co., Ltd. After acclimation and quarantine, the batch of mice were approximately 9-10 weeks of age at the time of performing the experiment of IMQ-induced psoriasis-like dermatitis. The experimental animals were bred in the environment: 12 hours light and 12 hours dark, room temperature of 23±2° C., and relative humidity of 40-70%. During feeding, animals were free to obtain adequate food and drinking water. In addition, during the quarantine and testing period, the animals were observed and recorded by the veterinarian and the experimental staff of ITRI to ensure health of these experimental animals.
Then, the hair on the back of each mouse was shaved, and the shaving area was about 4*2 cm^2. Since day 0, 3.125 mg imiquimod (IMQ) was administered by smearing to the skin of shaved area of each mouse daily for consecutive 6 days. […]
The above-mentioned degree of skin irritation is based on Psoriasis Area and Severity Index (PAST), in which erythema, thickening, and scaling of skin were assessed and analyzed for judging the scale. […]
The mean value and standard error of mean (S.E.M.) of each group were calculated by accumulating the index observed in the same mouse, and t-test statistics was used to distinguish the differences between the groups.

As for `O=CC1=CC[C@H](O)[C@@H]2CCC[C@H]12` [Tsaokoin (TK), tsaokoin], the “effect on progress of EAE (EAE score)” value in experiment [1] is “slow down the progress of EAE, and present a dose-dependent effect”. Besides, the “IC50, concentration causing 50% IL-17 secretion inhibition, EL4” value in experiment [2] amounted to 12.1 µg/mL. In experiment [3], the “inhibition of TNF-α secretion (in words)” value is “significantly inhibit the secretion of TNF-α”. Also, the “clinical symptoms of IMQ-induced psoriasis-like dermatitis” value in experiment [4] is reported as “significantly alleviate the clinical symptoms of IMQ-induced psoriasis-like dermatitis”.

These data come from patent US11510957B2, “Method for treating or alleviating autoimmune-related diseases” (priority 2016, dated 2022).
